Measurements reported in article PMC10887214 (Biomedicines, 2024).

What was measured:
CB1 receptor (hCB1) = biological target: T1, CB1 receptor (hCB1) (Homo sapiens, UniProt P21554); assay: Two-electrode voltage-clamp, CB1-GIRK1/GIRK2-RGS4 coupling system expressed in Xenopus oocytes; assay type: cell-based
T1 construct: expressed in transfected cells; host or cells: Xenopus laevis oocytes (cRNA injection)

GIRK1/GIRK2 channels = biological target: T2, GIRK1/GIRK2 channels (Mus musculus, UniProt P48542+P63250); assay: Two-electrode voltage-clamp, GIRK1/GIRK2 channels expressed in oocytes; assay type: cell-based; conditions: 100 μM OS, HK
T2 construct: expressed in transfected cells; host or cells: Xenopus laevis oocytes (cRNA injection)
T2 sequence (P63250 1-501): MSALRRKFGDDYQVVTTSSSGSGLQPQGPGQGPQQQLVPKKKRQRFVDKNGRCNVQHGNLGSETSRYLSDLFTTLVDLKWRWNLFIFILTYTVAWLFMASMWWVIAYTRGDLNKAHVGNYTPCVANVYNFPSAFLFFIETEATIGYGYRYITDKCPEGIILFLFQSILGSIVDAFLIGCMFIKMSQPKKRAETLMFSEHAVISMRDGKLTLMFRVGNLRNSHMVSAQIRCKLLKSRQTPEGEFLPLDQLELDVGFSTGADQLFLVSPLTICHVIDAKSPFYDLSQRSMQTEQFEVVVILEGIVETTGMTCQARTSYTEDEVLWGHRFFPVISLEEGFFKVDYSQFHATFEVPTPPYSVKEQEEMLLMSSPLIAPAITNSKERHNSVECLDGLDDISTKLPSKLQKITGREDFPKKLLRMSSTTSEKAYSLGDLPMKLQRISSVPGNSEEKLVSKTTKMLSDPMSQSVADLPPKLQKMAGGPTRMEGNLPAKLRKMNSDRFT
T2 sequence (P48542 1-425): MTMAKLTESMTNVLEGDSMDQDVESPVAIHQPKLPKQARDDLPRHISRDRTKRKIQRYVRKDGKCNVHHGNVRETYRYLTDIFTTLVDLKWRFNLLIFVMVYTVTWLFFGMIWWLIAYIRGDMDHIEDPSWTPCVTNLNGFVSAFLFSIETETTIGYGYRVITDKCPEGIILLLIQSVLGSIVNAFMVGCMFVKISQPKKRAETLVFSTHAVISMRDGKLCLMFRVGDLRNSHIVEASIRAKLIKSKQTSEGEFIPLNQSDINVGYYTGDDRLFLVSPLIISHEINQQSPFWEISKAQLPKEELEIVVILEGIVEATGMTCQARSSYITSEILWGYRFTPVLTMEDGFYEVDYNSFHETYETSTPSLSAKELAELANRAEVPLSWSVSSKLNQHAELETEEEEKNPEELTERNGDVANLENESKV
From the text: In vitro transcription of cDNA clones.
Heterologous expression in Xenopus laevis oocytes.
(§1) Electrophysiological measurements.

CaV3.1 = CaV3.1 (Homo sapiens, UniProt O43497)
From the text: as §1
(§2) (A), (B), (C), and (D) represent that
(§3) currents through the channels.
(§4) in oocytes, as described before (6-8).

KV1.5 = KV1.5 (Homo sapiens, UniProt P22460)
From the text: as §1, §2, §3, §4

NaV1.5 = NaV1.5 (Homo sapiens, UniProt Q14524)
From the text: as §1, §2, §3, §4

hERG = hERG (Homo sapiens, UniProt Q12809)
From the text: as §1, §2, §3, §4

C57BL/6J mice = assay: Open Field (OF); assay type: in vivo, mouse; conditions: i.p.
Procedure: Animal housing. Forty-eight Male C57BL/6J mice were purchased from Janvier Labs (Le Genest-Saint-Isle, France) and were time-specifically housed in a 12 h light-dark cycle (lights on at 7 am), with ad libitum water and food in conditioned rooms (22 °C, humidity ~60%).
Behavior assays. All mice were subjected to a behavioral test battery that consisted of several general performance tasks of locomotor activity, exploratory and anxiety-like behavior, and learning and memory. Mice were divided into four groups: Vehicle, OS (2 mg/kg), WIN55 (0.5 mg/kg), or OS + WIN. Each group consisted of 7–14 mice that received two i.p injections before each test, with a 10 min interval between each injection. Veh + Veh were injected with PBS. Veh + WIN were injected with PBS and WIN55. Veh + OS were injected with PBS and OS. OS + WIN were injected with OS and WIN55. PBS was used as vehicle as it was used for dilution of drugs. Tests were performed in the order described below after 10 min of the last injection, with a 24 h interval between each test.
Open Field (OF): One day after the cage activity test, mice were tested in the OF paradigm. The OF aimed to test the OS, WIN, and OS + WIN effect on animal locomotion and exploratory behavior. Animals were placed in the test room one hour before starting the test. For the OF, animals were placed in a plexiglass box (60 × 60 × 60 cm) divided into three zones (center, periphery, and corners) for 10 min and left free to explore. Total distance and time in zones were counted. Here, more time in the center meant an anxiolytic effect, and a higher distance walking meant an increase in locomotor activity. For this test, we used Veh (n = 8), OS (n = 10), WIN (n = 7), OS + WIN (n = 8).

5-HT4aR = 5-HT4aR (Mus musculus, UniProt P97288)
H4R = H4R (Homo sapiens, UniProt Q9H3N8)
MOR = MOR (Homo sapiens, UniProt P35372)
MRGPRX2 = MRGPRX2 (Homo sapiens, UniProt Q96LB1)
α7-nAChR = α7-nAChR (Homo sapiens, UniProt P36544)
TRPV1 = system: TRPV1; parameters: method as in PMID 17279090; conditions: HEK cells overexpressing TRPV1; read-out: IC50 as antagonist of TRPV1; cited from earlier work

T1 sequence (P21554 whole entry): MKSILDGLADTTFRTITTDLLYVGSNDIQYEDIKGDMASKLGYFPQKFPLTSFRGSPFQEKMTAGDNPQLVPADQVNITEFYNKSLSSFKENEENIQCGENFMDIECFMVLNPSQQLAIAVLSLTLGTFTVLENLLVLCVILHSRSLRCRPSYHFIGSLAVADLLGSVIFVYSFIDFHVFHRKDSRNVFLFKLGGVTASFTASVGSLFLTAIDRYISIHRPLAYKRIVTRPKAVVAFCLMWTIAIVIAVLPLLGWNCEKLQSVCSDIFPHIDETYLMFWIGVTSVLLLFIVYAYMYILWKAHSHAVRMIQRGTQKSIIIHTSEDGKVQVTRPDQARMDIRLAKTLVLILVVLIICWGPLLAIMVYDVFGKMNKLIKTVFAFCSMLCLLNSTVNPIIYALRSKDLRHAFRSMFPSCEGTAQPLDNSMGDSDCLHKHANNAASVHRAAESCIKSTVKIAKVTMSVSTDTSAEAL
MOR, sequence (P35372 whole entry): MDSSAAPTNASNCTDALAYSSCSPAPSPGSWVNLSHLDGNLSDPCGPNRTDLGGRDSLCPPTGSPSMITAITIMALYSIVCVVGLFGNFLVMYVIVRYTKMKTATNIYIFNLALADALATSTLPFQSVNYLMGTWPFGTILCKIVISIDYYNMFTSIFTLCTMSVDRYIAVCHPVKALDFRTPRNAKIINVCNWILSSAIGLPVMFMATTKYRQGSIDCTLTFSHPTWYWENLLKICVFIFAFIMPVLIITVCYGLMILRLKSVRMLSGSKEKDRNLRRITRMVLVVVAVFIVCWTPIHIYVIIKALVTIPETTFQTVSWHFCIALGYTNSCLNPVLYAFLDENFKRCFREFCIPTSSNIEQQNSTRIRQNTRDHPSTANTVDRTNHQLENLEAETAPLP
α7-nAChR, sequence (P36544 23-502): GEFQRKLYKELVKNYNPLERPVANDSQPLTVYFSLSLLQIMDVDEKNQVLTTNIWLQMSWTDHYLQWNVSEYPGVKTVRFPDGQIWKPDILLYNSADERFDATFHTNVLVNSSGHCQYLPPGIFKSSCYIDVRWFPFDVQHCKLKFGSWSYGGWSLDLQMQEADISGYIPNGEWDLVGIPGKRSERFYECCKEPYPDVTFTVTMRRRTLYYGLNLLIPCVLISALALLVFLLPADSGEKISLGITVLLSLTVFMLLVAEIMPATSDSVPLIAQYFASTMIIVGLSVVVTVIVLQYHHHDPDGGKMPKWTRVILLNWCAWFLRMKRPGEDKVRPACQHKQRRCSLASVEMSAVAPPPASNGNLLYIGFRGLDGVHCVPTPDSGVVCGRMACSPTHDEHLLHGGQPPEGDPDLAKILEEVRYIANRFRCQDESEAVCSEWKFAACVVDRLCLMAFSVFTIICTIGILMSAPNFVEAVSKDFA
CaV3.1, sequence (O43497 whole entry): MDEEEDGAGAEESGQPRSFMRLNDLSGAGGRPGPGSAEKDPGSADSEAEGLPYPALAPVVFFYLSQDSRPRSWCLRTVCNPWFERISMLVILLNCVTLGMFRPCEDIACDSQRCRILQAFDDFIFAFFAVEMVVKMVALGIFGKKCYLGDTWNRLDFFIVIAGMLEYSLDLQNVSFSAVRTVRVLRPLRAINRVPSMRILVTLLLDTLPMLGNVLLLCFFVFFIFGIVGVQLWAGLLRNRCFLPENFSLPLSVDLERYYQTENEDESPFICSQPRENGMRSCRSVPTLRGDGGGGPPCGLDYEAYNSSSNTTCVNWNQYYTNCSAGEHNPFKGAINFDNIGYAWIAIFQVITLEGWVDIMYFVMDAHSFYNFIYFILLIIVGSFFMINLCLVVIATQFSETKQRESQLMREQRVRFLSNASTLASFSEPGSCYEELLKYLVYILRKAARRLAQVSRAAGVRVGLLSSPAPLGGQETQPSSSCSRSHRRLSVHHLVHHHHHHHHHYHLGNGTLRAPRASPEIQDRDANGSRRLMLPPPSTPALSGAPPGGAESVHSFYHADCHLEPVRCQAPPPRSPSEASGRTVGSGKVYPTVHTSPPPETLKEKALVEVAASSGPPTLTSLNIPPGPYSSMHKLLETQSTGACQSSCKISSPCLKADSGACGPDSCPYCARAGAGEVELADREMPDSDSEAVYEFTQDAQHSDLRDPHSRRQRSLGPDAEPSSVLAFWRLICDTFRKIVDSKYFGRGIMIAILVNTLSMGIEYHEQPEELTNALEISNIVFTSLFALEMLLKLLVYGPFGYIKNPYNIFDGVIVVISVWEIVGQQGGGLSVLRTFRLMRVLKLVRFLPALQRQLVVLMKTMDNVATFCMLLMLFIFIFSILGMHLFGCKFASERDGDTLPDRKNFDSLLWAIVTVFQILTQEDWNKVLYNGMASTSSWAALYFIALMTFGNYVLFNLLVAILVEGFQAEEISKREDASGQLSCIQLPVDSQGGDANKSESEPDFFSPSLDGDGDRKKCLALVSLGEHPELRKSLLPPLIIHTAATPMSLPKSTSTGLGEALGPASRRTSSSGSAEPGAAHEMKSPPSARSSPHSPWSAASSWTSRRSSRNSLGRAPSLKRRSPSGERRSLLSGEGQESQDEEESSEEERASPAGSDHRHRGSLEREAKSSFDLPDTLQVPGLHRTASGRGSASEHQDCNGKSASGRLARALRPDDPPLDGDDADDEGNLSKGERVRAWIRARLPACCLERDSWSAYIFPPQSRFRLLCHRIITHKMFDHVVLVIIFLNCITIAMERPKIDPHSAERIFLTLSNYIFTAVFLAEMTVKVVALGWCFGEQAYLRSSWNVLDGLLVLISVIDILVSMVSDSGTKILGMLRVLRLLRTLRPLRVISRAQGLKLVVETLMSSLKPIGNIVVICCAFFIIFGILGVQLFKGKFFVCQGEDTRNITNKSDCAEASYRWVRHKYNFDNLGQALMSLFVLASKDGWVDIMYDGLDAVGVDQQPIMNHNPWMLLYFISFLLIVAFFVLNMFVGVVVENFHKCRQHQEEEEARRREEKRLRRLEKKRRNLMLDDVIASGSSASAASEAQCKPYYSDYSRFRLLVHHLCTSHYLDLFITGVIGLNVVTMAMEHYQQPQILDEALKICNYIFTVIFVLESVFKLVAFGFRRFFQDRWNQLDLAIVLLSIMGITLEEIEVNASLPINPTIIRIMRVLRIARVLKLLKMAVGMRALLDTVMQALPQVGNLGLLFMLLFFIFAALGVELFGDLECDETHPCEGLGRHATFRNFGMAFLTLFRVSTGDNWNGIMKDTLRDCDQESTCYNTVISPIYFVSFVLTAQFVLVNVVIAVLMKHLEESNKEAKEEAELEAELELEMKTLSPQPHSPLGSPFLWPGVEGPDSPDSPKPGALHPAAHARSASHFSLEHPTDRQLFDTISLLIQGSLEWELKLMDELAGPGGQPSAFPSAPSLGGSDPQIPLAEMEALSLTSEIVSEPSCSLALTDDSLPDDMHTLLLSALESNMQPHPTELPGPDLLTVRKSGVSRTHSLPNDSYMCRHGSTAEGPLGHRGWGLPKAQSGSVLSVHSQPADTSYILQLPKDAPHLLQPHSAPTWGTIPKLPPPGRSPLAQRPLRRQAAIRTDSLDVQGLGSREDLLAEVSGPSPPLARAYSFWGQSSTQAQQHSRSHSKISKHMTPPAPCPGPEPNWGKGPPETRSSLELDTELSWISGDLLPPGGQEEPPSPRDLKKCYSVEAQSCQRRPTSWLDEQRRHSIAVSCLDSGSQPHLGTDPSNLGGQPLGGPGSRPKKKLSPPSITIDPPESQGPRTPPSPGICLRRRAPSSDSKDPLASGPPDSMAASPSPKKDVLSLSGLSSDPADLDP
KV1.5, sequence (P22460 whole entry): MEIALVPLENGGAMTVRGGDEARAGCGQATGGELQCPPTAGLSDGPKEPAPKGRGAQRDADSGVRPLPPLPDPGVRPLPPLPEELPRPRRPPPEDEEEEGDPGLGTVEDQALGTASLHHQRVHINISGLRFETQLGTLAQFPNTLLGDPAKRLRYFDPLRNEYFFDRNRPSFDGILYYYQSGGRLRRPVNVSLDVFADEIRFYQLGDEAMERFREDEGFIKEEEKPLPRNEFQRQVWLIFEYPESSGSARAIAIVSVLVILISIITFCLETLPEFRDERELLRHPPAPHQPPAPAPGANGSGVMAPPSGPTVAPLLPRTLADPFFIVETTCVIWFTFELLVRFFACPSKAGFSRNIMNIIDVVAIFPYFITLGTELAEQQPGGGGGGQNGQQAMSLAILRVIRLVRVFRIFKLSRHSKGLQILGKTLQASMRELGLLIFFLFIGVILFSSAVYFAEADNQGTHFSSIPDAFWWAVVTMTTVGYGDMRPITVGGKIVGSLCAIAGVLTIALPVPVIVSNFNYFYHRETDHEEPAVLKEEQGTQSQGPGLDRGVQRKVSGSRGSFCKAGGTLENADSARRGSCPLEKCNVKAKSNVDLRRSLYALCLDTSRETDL
MRGPRX2, sequence (Q96LB1 whole entry): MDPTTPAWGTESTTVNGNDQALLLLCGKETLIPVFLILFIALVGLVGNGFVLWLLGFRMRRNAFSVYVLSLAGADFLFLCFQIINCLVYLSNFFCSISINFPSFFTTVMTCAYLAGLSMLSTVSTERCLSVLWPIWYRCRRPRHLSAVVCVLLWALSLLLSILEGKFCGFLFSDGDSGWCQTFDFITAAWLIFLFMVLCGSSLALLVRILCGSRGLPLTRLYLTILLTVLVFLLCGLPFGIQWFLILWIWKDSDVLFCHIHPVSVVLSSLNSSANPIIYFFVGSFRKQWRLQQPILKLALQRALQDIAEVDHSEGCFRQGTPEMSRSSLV
H4R, sequence (Q9H3N8 whole entry): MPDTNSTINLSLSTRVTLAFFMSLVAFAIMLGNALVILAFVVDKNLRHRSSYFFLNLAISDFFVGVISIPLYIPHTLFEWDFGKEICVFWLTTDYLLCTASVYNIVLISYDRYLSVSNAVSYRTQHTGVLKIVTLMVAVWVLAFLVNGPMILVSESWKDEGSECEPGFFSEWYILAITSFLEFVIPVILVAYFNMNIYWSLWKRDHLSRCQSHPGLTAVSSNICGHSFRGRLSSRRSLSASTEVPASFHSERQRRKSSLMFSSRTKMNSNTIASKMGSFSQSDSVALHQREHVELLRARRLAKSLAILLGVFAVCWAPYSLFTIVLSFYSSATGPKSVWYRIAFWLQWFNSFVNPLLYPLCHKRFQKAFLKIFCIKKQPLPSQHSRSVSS

**Q.** Which “Effect on WIN55,212-2-induced inward K+ currents (IK,WIN+OS)” value (CB1 receptor (hCB1); 100 μM OS co-applied with 0.3 μM WIN55,212-2) does the source give for `CCCCCCCC/C=C\CCCCCCCC(=O)NCCc1c[nH]c2ccc(O)cc12` [OS, oleoyl serotonin] here?
**A.** The value was “inhibited”.

**Q.** And the “Effect of OS alone on IK,basal” value (CB1 receptor (hCB1); 100 μM OS, 20–30 s, in HK)?
**A.** The value was “did not change the response of IK,basal”.

**Q.** What about the IC50 (CB1 receptor (hCB1); IC50 of blocking CB1 receptor activated by WIN55,212-2, 0.03 μM WIN + OS) of the same compound?
**A.** Its IC50 is 2.4 µM.

**Q.** What about the IC50 (CB1 receptor (hCB1); IC50 of blocking CB1 receptor activated by WIN55,212-2, 0.1 μM WIN + OS) of the same compound?
**A.** Its IC50 is 6.5 µM.

**Q.** And the IC50 (CB1 receptor (hCB1); IC50 of blocking CB1 receptor activated by WIN55,212-2, 0.3 μM WIN + OS)?
**A.** The IC50 was 16.2 µM.

**Q.** What about the IC50 (CB1 receptor (hCB1); IC50 of blocking CB1 receptor activated by WIN55,212-2, 1 μM WIN + OS) of the same compound?
**A.** The IC50 was 34.1 µM.

**Q.** And the Mode of antagonism (CB1 receptor (hCB1); against WIN55,212-2)?
**A.** The Mode of antagonism was “competitively blocked”.

**Q.** And the “Effect on IK,basal” value (GIRK1/GIRK2 channels)?
**A.** The value was “did not significantly change IK,basal”.

**Q.** What about the “Activity in selectivity screening” value (CaV3.1) of the same compound?
**A.** Its value is “did not show significant activity”.

**Q.** And the “Activity in selectivity screening” value (KV1.5)?
**A.** Its value is “did not show significant activity”.

**Q.** And the “Activity in selectivity screening” value (NaV1.5)?
**A.** The value was “did not show significant activity”.

**Q.** And the “Activity in selectivity screening” value (hERG)?
**A.** Its value is “did not show significant activity”.

**Q.** And the “Effect of OS injection on the WIN-induced decrease of time in the periphery” value (C57BL/6J mice; OS 2 mg/kg before WIN 0.5 mg/kg)?
**A.** Its value is “prevented this decrease”.

**Q.** What about the “Total distance walked in open field (locomotion)” value (C57BL/6J mice; OS 2 mg/kg, WIN 0.5 mg/kg, 10 min test) of the same compound?
**A.** Its value is “neither OS nor WIN affected locomotion”.

**Q.** And the “Time spent in the center zone of open field” value (C57BL/6J mice; OS 2 mg/kg, WIN 0.5 mg/kg, compared with Veh + WIN)?
**A.** Its value is “spent more time than the WIN-only group”.

**Q.** And the “Activity in selectivity screening” value (5-HT4aR)?
**A.** Its value is “did not show significant activity”.

**Q.** And the “Activity in selectivity screening” value (H4R)?
**A.** The value was “did not show significant activity”.

**Q.** What about the “Activity in selectivity screening” value (MOR) of the same compound?
**A.** Its value is “did not show significant activity”.

**Q.** And the “Activity in selectivity screening” value (MRGPRX2)?
**A.** The value was “did not show significant activity”.

**Q.** What about the “Activity in selectivity screening” value (α7-nAChR) of the same compound?
**A.** The value was “did not show significant activity”.

**Q.** And the IC50 (TRPV1)?
**A.** The IC50 was 2.57 µM.
